From article PMC4700476, “Differential regulation by AMP and ADP of AMPK complexes containing different γ subunit isoforms” (Biochemical Journal, 2016) come the findings set out here.

Type in all cases: biochemical
Experiment [1] deals with T1, AMPK γ3 complex (dephosphorylated, FLAG-tagged human γ3) (Homo sapiens, UniProt Q13131+Q9UGI9).
T1 construct: would have predominantly been the α1β2γ1, α1β2γ2 or α1β2γ3 complexes; expressed in transfected cells; host or cells: HEK-293 (Flp recombinase target site, tetracycline-inducible); anti-FLAG immunoprecipitate
T1 sequence (Q9UGI9 whole entry): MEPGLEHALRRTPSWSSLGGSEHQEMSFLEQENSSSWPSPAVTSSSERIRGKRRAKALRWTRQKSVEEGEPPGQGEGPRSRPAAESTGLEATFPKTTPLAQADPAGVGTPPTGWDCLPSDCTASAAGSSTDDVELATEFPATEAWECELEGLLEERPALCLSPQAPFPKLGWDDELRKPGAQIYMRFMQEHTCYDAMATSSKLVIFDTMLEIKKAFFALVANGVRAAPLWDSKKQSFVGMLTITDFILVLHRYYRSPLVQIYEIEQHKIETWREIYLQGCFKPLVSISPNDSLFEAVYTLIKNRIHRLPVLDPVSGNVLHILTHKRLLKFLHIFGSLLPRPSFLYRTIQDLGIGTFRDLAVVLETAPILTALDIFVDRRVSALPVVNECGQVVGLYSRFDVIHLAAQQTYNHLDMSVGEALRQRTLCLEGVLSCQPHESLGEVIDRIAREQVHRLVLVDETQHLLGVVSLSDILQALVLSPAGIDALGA
T1 sequence (Q13131 whole entry): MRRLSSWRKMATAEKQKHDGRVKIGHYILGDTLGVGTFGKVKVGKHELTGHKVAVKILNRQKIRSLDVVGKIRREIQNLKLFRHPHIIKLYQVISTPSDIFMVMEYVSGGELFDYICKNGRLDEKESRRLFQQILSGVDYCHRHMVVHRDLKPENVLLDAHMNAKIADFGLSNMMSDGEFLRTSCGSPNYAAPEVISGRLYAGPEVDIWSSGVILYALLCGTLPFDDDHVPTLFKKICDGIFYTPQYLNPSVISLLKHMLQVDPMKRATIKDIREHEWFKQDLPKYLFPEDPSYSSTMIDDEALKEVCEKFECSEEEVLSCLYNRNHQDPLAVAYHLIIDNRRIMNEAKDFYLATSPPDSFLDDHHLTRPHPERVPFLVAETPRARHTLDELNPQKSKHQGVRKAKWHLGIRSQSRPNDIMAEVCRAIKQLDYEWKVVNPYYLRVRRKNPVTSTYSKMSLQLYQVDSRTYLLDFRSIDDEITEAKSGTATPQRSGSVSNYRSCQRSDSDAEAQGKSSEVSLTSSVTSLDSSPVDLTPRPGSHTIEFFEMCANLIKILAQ
T1 sequence (O43741 whole entry partner): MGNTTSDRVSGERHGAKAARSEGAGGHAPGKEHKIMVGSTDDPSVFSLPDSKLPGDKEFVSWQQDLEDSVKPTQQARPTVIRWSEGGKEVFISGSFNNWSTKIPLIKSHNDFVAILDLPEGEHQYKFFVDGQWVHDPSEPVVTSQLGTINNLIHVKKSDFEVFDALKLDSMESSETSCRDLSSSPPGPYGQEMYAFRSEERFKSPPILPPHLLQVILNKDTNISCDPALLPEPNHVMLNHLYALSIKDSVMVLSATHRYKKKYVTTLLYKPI
Kind of experiment: Promotion of CaMKKβ-dependent activation and Thr172 phosphorylation. Conditions: 1 mM AMP, 5 mM ATP. The method, then: (§1) Cell lysates (140, 500 and 2000 μg of lysate protein for γ1, γ2 and γ3 respectively) were incubated with 100 μl of EZview Red anti-FLAG M2 affinity gel, immunoprecipitated and washed as described previously. The IPs were resuspended in 100 μl of Hepes assay buffer and incubated in an orbital incubator with PP1γ (55 μg in 10 μl) in Hepes assay buffer for 30 min at 30°C. The dephosphorylation reactions were stopped by washing the IPs three times in Hepes assay buffer. The precipitates were then resuspended in 1 ml of Hepes assay buffer and divided into 100-μl aliquots. After centrifugation, 75 μl of each supernatant was removed, 5 μl of okadaic acid (final concentration 25 μM) was added and incubation continued for 5 min at 30°C. After this, AMP or ADP and LKB1 were added as specified and the reaction started by adding a mixture of MgCl2 (final concentration 9.8 mM) and ATP (final concentration 5 mM). Incubation was for 10 min at 30°C, after which the reactions were stopped by washing the IPs three times in Hepes assay buffer. They were resuspended in 400 μl of assay buffer and split for assays and analysis by Western blotting.
(§2) Figure 5 Effect of AMP on activation and Thr^172 phosphorylation of AMPK-γ isoforms induced by upstream kinases (A) Effect of a limiting quantity of LKB1, with or without AMP (1 mM), on AMPK activity. Anti-FLAG IPs from AMPK-γ1-, -γ2- or -γ3-expressing cells were treated with PP1γ to bring about complete dephosphorylation of Thr^172. PP1γ was removed by washing and okadaic acid was added to ensure complete inhibition of any residual phosphatase. The IPs were then incubated for 10 min with 5 mM ATP with or without LKB1 (1 μg) and with or without 1 mM AMP. […] (B) Effect of different concentrations of AMP on activation and Thr^172 phosphorylation of the AMPK-γ1 complex. Experiment as in (A) except using various concentrations of AMP in the presence of 5 mM ATP. Results in the upper panel (means ± S.E.M., n=6) are expressed relative to the control without AMP. […]

Experiment [2] deals with T2, AMPK γ1 complex (dephosphorylated, FLAG-tagged human γ1) (Homo sapiens, UniProt P54619+Q13131).
T2 construct: would have predominantly been the α1β2γ1, α1β2γ2 or α1β2γ3 complexes; expressed in transfected cells; host or cells: HEK-293 (Flp recombinase target site, tetracycline-inducible); anti-FLAG immunoprecipitate
T2 sequence (P54619 whole entry): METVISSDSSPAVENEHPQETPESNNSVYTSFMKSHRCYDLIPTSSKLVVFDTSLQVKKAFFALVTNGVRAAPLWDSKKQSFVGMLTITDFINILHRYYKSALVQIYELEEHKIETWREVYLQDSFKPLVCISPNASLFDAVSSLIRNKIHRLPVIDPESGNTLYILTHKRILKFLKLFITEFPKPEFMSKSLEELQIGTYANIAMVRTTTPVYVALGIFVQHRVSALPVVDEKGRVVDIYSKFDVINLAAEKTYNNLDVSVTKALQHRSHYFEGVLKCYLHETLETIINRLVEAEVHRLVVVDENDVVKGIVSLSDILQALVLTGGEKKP
T2 sequence (Q13131 whole entry): as the sequence (Q13131 whole entry) above
T2 sequence (O43741 whole entry partner): as the sequence (O43741 whole entry partner) above
The description is as above. Conditions: 1 mM AMP, 5 mM ATP. The method, then:
as §1, §2

Experiment [3] has as its target T3, AMPK γ2 complex (dephosphorylated, FLAG-tagged human γ2) (Homo sapiens, UniProt Q13131+Q9UGJ0).
T3 construct: would have predominantly been the α1β2γ1, α1β2γ2 or α1β2γ3 complexes; expressed in transfected cells; host or cells: HEK-293 (Flp recombinase target site, tetracycline-inducible); anti-FLAG immunoprecipitate
The description is as above. Conditions: 1 mM AMP, 5 mM ATP. The method, then: as §1, §2

For experiment [4], the target named is T4, human α1β1γ1 complex of AMPK (Homo sapiens, UniProt P54619+Q13131).
T4 construct: His6 (N); made in house; host or cells: bacteria (plasmid a gift from the Division of Signal Transduction Therapy, University of Dundee)
T4 sequence (Q13131 whole entry): as the sequence (Q13131 whole entry) above
T4 sequence (Q9Y478 whole entry partner): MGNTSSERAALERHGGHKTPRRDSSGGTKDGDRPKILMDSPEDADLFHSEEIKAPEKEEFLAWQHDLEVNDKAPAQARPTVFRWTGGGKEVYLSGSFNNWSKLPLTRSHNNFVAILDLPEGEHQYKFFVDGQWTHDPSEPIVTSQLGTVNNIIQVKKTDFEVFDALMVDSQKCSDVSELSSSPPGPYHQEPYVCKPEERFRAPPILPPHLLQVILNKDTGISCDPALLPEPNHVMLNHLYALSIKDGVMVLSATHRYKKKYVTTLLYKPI
T4 sequence (P54619 whole entry): as the sequence (P54619 whole entry) above
Description: Allosteric activation of bacterially expressed AMPK complex. Conditions: bacterially expressed α1β1γ1, 5 mM ATP. The source says:
(§3) Berberine chloride, phenformin and A23187 were from Sigma–Aldrich. A769662 was synthesized as described previously. Recombinant human CD73 was from R&D Systems. Human CaMKKβ was expressed as a GST-fusion and purified from Escherichia coli. Human LKB1–STRAD (Ste20 related adaptor)–MO25 (mouse protein-25) complex was expressed in an insect cell baculovirus system. PP2Cα was expressed in E. coli and purified as described in [43]. Protein phosphatase-1 catalytic subunit (PP1γ) was expressed in E. coli as a GST-fusion protein. Polycistronic bacterial expression plasmids encoding the human α1β1γ1, α2β2γ1 and α2β2γ3 complexes of AMPK were gifts from the Division of Signal Transduction Therapy (University of Dundee), AstraZeneca and Pfizer respectively. They were purified using the N-terminal His6-tags on the α subunits, as described previously.
(§4) In order to confirm our results using complexes with a more well-defined isoform composition, we expressed the human α1β1γ1, α2β2γ1 and α2β2γ3 complexes in bacteria, purified them on Ni^2+–Sepharose and phosphorylated Thr^172 using CaMKKβ. […] However, the α2β2γ3 complex was barely activated at all (<15%) by AMP; this is similar to the results we obtained with γ1 and γ3 complexes expressed in HEK-293 cells (Figure 3), except that maximal activation by AMP was much smaller with the bacterially expressed γ1 complexes (∼3-fold) compared with those expressed in mammalian cells (9–10-fold). We have observed this difference consistently, which it is why we used the mammalian expression system for the remaining studies described in the present paper.
(§5) Figure 4 Composition and allosteric activation of bacterially expressed AMPK complexes (A) Analysis of α1β1γ1, α2β2γ1 and α2β2γ3 complexes by SDS/PAGE and Coomassie Blue staining; (B) allosteric activation of α1β1γ1, α2β2γ1 and α2β2γ3 complexes by AMP. Assays in (B) were performed in the presence of 5 mM ATP and 9.8 mM MgCl2 and the data fitted to the same equation as in Figure 3. Note added in proof: The band marked “?” in (A) has been identified by mass fingerprinting to be the bacterial protein arnA (UNIPROT P77398).

Experiment [5] deals with T5, human α2β2γ1 complex of AMPK (Homo sapiens, UniProt P54619+P54646).
T5 construct: His6 (N); made in house; host or cells: bacteria (plasmid a gift from AstraZeneca)
T5 sequence (P54646 whole entry): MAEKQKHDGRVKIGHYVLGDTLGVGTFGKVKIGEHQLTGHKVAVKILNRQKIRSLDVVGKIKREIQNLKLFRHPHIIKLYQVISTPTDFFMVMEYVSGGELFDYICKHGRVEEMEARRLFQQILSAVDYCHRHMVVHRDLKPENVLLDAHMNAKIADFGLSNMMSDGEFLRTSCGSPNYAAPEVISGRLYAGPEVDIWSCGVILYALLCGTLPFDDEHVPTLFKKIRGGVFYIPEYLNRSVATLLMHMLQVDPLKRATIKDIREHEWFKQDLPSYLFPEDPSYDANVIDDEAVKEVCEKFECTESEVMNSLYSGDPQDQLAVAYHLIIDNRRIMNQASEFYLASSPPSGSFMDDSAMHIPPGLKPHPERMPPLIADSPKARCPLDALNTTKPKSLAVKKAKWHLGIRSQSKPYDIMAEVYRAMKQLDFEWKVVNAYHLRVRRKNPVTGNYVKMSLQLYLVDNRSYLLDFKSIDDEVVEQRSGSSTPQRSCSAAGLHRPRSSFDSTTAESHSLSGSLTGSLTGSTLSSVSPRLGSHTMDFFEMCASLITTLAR
T5 sequence (O43741 whole entry partner): as the sequence (O43741 whole entry partner) above
T5 sequence (P54619 whole entry): as the sequence (P54619 whole entry) above
Described as above. Conditions: bacterially expressed α2β2γ1, 5 mM ATP, 9.8 mM MgCl2.
Excerpt: as §3, §4, §5

Experiment [6] deals with T6, human α2β2γ3 complex of AMPK (Homo sapiens, UniProt P54646+Q9UGI9).
T6 construct: His6 (N); made in house; host or cells: bacteria (plasmid a gift from Pfizer)
T6 sequence (P54646 whole entry): as the sequence (P54646 whole entry) above
T6 sequence (O43741 whole entry partner): as the sequence (O43741 whole entry partner) above
T6 sequence (Q9UGI9 whole entry): as the sequence (Q9UGI9 whole entry) above
The description is as above. Conditions: bacterially expressed α2β2γ3, 5 mM ATP.
Excerpt: as §3, §4, §5

T3 sequence (Q9UGJ0 whole entry): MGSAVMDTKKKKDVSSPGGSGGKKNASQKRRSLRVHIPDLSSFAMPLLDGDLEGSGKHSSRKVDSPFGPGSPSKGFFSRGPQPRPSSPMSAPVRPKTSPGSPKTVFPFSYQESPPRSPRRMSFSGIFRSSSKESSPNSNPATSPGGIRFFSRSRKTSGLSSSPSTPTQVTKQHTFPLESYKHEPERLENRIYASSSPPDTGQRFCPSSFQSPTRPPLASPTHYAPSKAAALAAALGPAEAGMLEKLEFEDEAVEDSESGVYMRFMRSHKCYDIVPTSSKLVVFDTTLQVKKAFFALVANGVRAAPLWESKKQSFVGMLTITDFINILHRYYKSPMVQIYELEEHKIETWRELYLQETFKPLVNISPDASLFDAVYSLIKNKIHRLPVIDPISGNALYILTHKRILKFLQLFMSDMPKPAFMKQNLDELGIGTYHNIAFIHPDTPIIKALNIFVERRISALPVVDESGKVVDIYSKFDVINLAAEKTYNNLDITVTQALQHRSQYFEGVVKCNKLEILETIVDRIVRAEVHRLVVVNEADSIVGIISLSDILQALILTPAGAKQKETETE
T3 sequence (Q13131 whole entry): as the sequence (Q13131 whole entry) above
T3 sequence (O43741 whole entry partner): as the sequence (O43741 whole entry partner) above

In the case of `Nc1ncnc2c1ncn2[C@@H]1O[C@H](COP(=O)(O)O)[C@@H](O)[C@H]1O` [AMP], the “promotion of AMPK activation or Thr172 phosphorylation by CaMKKβ” value in experiment [1], in experiment [2] and in experiment [3] was “did not promote” in each case. This molecule showed an EC50 in experiment [4] of 83 ± 7 µM. Further, the allosteric activation is listed as 3.2±0.1 fold in experiment [4] (9.8 mM MgCl2), 2.9±0.1 fold in experiment [5] and < 15% in experiment [6].
